Assay results from patent publication US10501516B2, “Peptide compound” (TAKEDA PHARMACEUTICAL COMPANY LIMITED, priority 2016, dated 2019).
Square brackets hold non-standard residues; d marks the D form. Side chains are listed from the residue outwards. Peptide text beside a SMILES is read from it. * marks the point of attachment. C18 diacid = O=C(O)CCCCCCCCCCCCCCCCC(=O)*; NMeY = CN[C@@H](Cc1ccc(O)cc1)C(=O)O; Palmitoyl = CCCCCCCCCCCCCCCC(=O)*; αMeF = C[C@](N)(Cc1ccccc1)C(=O)O; Iva = CC[C@](C)(N)C(=O)O; Aib = CC(C)(N)C(=O)O

Test system: male C57BL/6J mouse
Assay: Evaluation of feeding suppressive action in mice
Format: in vivo
Settings: 30 nmol/kg s.c. once a day for 3 days; 3-days cumulative food consumption vs solvent control
Protocol: The feeding suppressive activity of a test compound was examined by the method described below.
The test compound was dissolved at a concentration of 30 or 100 nmol/2 mL in a solvent (10% DMSO-containing physiological saline). The test compound solution was subcutaneously administered at a dose of 2 mL/kg to the back of each male C57BL/6J mouse at 8-9 weeks of age (20-26° C., allowed to take food and water ad libitum; raised in the 12-hour bright-12-hour dark cycle). The administration was performed once a day for 3 days. After the administration, the mouse was individually raised in a rearing cage, and given previously weighed food; food consumption for 3 days after the start of administration was measured. The food consumption was calculated by subtracting the amount of remaining food from the weight of the food given on the day of the start of administration. When the food consumption of a control group receiving administration of the solvent alone was regarded as a suppression rate of 0%, the feeding suppressive activity of each test compound was evaluated on the basis of 3-days cumulative food consumption after the start of administration. The food intake suppression rate (%) of the test compound was defined as (Food consumption of the control group−Food consumption of the test compound-administered group)/Food consumption of the control group×100.

Structure (SMILES): CCCCCCCCCCCCCCCC(=O)NCC(=O)NCC(=O)NCC(=O)NCC(=O)NCCCC[C@H](NC(=O)[C@H](CC(=O)O)NC(=O)[C@H](CO)NC(=O)[C@@H](NC(=O)[C@](C)(Cc1ccccc1)NC(=O)[C@@H](NC(=O)CNC(=O)[C@H](CCC(=O)O)NC(=O)C(C)(C)NC(=O)[C@H](Cc1ccc(O)cc1)NC)[C@@H](C)O)[C@@H](C)O)C(=O)N[C@@H](CO)C(=O)N[C@@H](CCCCN)C(=O)NC(C)(C)C(=O)N[C@@H](CC(C)C)C(=O)N[C@@H](CC(=O)O)C(=O)N[C@@H](CCCCN)C(=O)N[C@@H](CCC(N)=O)C(=O)N[C@@H](CCCNC(=N)N)C(=O)N[C@@H](CCC(N)=O)C(=O)N[C@@](C)(CC)C(=O)N[C@@H](CCC(=O)O)C(=O)N[C@@H](Cc1ccccc1)C(=O)N[C@H](C(=O)N[C@@H](CCCNC(=N)N)C(=O)N[C@@H](Cc1c[nH]cn1)C(=O)N[C@@H](CC(C)C)C(=O)N[C@@H](CC(C)C)C(=O)N[C@@H](CC(N)=O)C(=O)N[C@@H](CCCCN)C(=O)NC(C)(C)C(=O)N[C@H](C(=O)N[C@@H](CCCNC(=N)N)C(=O)N[C@@H](CCC(N)=O)C(=O)N[C@@H](CCCNC(=N)N)C(=O)N[C@@H](Cc1ccc(O)cc1)C(N)=O)[C@@H](C)O)C(C)C [Example 25] (H-[NMeY][Aib]EGT[αMeF]TSDK([Gly-Gly-Gly-Gly-Palmitoyl])SK[Aib]LDKQRQ[Iva]EFVRHLLNK[Aib]TRQRY-NH2)
- Rate of feeding suppression (%): −41.7%

Structure (SMILES): CCCCCCCCCCCCCCCC(=O)NCC(=O)NCC(=O)NCC(=O)NCC(=O)NCCCC[C@H](NC(=O)[C@H](CC(=O)O)NC(=O)[C@H](CO)NC(=O)[C@@H](NC(=O)[C@](C)(Cc1ccccc1)NC(=O)[C@@H](NC(=O)CNC(=O)[C@H](CCC(=O)O)NC(=O)C(C)(C)NC(=O)[C@H](Cc1ccc(O)cc1)NC)[C@@H](C)O)[C@@H](C)O)C(=O)NC(C)(C)C(=O)N[C@H](C(=O)NC(C)(C)C(=O)N[C@@H](CC(C)C)C(=O)N[C@@H](CC(=O)O)C(=O)N[C@@H](CCCCN)C(=O)N[C@@H](CCC(N)=O)C(=O)N[C@@H](C)C(=O)N[C@@H](CCC(N)=O)C(=O)N[C@@](C)(CC)C(=O)N[C@@H](CCC(=O)O)C(=O)N[C@@H](Cc1ccccc1)C(=O)N[C@H](C(=O)N[C@@H](CCCNC(=N)N)C(=O)N[C@@H](Cc1c[nH]cn1)C(=O)N[C@@H](CC(C)C)C(=O)N[C@@H](CC(C)C)C(=O)N[C@@H](CC(N)=O)C(=O)N[C@@H](CCCCN)C(=O)NC(C)(C)C(=O)N[C@H](C(=O)N[C@@H](CCCNC(=N)N)C(=O)N[C@@H](CCC(N)=O)C(=O)N[C@@H](CCCNC(=N)N)C(=O)N[C@@H](Cc1ccc(O)cc1)C(N)=O)[C@@H](C)O)C(C)C)[C@@H](C)CC [Example 29] (H-[NMeY][Aib]EGT[αMeF]TSDK([Gly-Gly-Gly-Gly-Palmitoyl])[Aib]I[Aib]LDKQAQ[Iva]EFVRHLLNK[Aib]TRQRY-NH2)
- Rate of feeding suppression (%): −43.7%

Structure (SMILES): CCCCCCCCCCCCCCCC(=O)NCC(=O)NCC(=O)NCC(=O)NCC(=O)NCCCC[C@H](NC(=O)[C@H](CC(=O)O)NC(=O)[C@H](CO)NC(=O)[C@@H](NC(=O)[C@](C)(Cc1ccccc1)NC(=O)[C@@H](NC(=O)CNC(=O)[C@H](CCC(=O)O)NC(=O)C(C)(C)NC(=O)[C@@H](N)Cc1ccc(O)cc1)[C@@H](C)O)[C@@H](C)O)C(=O)NC(C)(C)C(=O)N[C@H](C(=O)NC(C)(C)C(=O)N[C@@H](CC(C)C)C(=O)N[C@@H](CCC(=O)O)C(=O)N[C@@H](CCCCN)C(=O)N[C@@H](CCC(N)=O)C(=O)N[C@@H](CCCNC(=N)N)C(=O)N[C@@H](CCC(N)=O)C(=O)N[C@@](C)(CC)C(=O)N[C@@H](CCC(=O)O)C(=O)N[C@@H](Cc1ccccc1)C(=O)N[C@H](C(=O)N[C@@H](CCCNC(=N)N)C(=O)N[C@@H](Cc1c[nH]cn1)C(=O)N[C@@H](CC(C)C)C(=O)N[C@@H](CC(C)C)C(=O)N[C@@H](CC(N)=O)C(=O)N[C@@H](CCCCN)C(=O)NC(C)(C)C(=O)N[C@H](C(=O)N[C@@H](CCCNC(=N)N)C(=O)N[C@@H](CCC(N)=O)C(=O)N[C@@H](CCCNC(=N)N)C(=O)N[C@@H](Cc1ccc(O)cc1)C(N)=O)[C@@H](C)O)C(C)C)[C@@H](C)CC [Example 31] (H-Y[Aib]EGT[αMeF]TSDK([Gly-Gly-Gly-Gly-Palmitoyl])[Aib]I[Aib]LEKQRQ[Iva]EFVRHLLNK[Aib]TRQRY-NH2)
- Rate of feeding suppression (%): −56.8%

Structure (SMILES): CC[C@H](C)[C@H](NC(=O)C(C)(C)NC(=O)[C@H](CCCCNC(=O)CNC(=O)CNC(=O)CNC(=O)CNC(=O)CCCCCCCCCCCCCCCCC(=O)O)NC(=O)[C@H](CC(=O)O)NC(=O)[C@H](CO)NC(=O)[C@@H](NC(=O)[C@](C)(Cc1ccccc1)NC(=O)[C@@H](NC(=O)CNC(=O)[C@H](CCC(=O)O)NC(=O)C(C)(C)NC(=O)[C@@H](N)Cc1ccc(O)cc1)[C@@H](C)O)[C@@H](C)O)C(=O)NC(C)(C)C(=O)N[C@@H](CC(C)C)C(=O)N[C@@H](CCC(=O)O)C(=O)N[C@@H](CCCCN)C(=O)N[C@@H](CCC(N)=O)C(=O)N[C@@H](CCCNC(=N)N)C(=O)N[C@@H](CCC(N)=O)C(=O)N[C@@](C)(CC)C(=O)N[C@@H](CCC(=O)O)C(=O)N[C@@H](Cc1ccccc1)C(=O)N[C@H](C(=O)N[C@@H](CCCNC(=N)N)C(=O)N[C@@H](Cc1c[nH]cn1)C(=O)N[C@@H](CC(C)C)C(=O)N[C@@H](CC(C)C)C(=O)N[C@@H](CC(N)=O)C(=O)N[C@@H](CCCCN)C(=O)NC(C)(C)C(=O)N[C@H](C(=O)N[C@@H](CCCNC(=N)N)C(=O)N[C@@H](CCC(N)=O)C(=O)N[C@@H](CCCNC(=N)N)C(=O)N[C@@H](Cc1ccc(O)cc1)C(N)=O)[C@@H](C)O)C(C)C [Example 32] (H-Y[Aib]EGT[αMeF]TSDK([Gly-Gly-Gly-Gly-C18 diacid])[Aib]I[Aib]LEKQRQ[Iva]EFVRHLLNK[Aib]TRQRY-NH2)
- Rate of feeding suppression (%): −51.0%

Structure (SMILES): CCCCCCCCCCCCCCCC(=O)NCC(=O)NCC(=O)NCC(=O)NCC(=O)NCCCC[C@H](NC(=O)[C@H](CC(=O)O)NC(=O)[C@H](CO)NC(=O)[C@@H](NC(=O)[C@](C)(Cc1ccccc1)NC(=O)[C@@H](NC(=O)CNC(=O)[C@H](CCC(=O)O)NC(=O)C(C)(C)NC(=O)[C@@H](N)Cc1ccc(O)cc1)[C@@H](C)O)[C@@H](C)O)C(=O)N[C@@H](C)C(=O)N[C@H](C(=O)NC(C)(C)C(=O)N[C@@H](CC(C)C)C(=O)N[C@@H](CCC(=O)O)C(=O)N[C@@H](CCCCN)C(=O)N[C@@H](CCC(N)=O)C(=O)N[C@@H](CCCNC(=N)N)C(=O)N[C@@H](CCC(N)=O)C(=O)N[C@@](C)(CC)C(=O)N[C@@H](CCC(=O)O)C(=O)N[C@@H](Cc1ccccc1)C(=O)N[C@H](C(=O)N[C@@H](CCCNC(=N)N)C(=O)N[C@@H](Cc1c[nH]cn1)C(=O)N[C@@H](CC(C)C)C(=O)N[C@@H](CC(C)C)C(=O)N[C@@H](CC(N)=O)C(=O)N[C@@H](CCCCN)C(=O)NC(C)(C)C(=O)N[C@H](C(=O)N[C@@H](CCCNC(=N)N)C(=O)N[C@@H](CCC(N)=O)C(=O)N[C@@H](CCCNC(=N)N)C(=O)N[C@@H](Cc1ccc(O)cc1)C(N)=O)[C@@H](C)O)C(C)C)[C@@H](C)CC [Example 35] (H-Y[Aib]EGT[αMeF]TSDK([Gly-Gly-Gly-Gly-Palmitoyl])AI[Aib]LEKQRQ[Iva]EFVRHLLNK[Aib]TRQRY-NH2)
- Rate of feeding suppression (%): −52.6%

Structure (SMILES): CCCCCCCCCCCCCCCC(=O)NCC(=O)NCC(=O)NCC(=O)NCC(=O)NCCCC[C@H](NC(=O)[C@H](CC(=O)O)NC(=O)[C@H](CO)NC(=O)[C@@H](NC(=O)[C@](C)(Cc1ccccc1)NC(=O)[C@@H](NC(=O)CNC(=O)[C@H](CCC(=O)O)NC(=O)C(C)(C)NC(=O)[C@H](Cc1ccc(O)cc1)NC)[C@@H](C)O)[C@@H](C)O)C(=O)N[C@@H](C)C(=O)N[C@H](C(=O)NC(C)(C)C(=O)N[C@@H](CC(C)C)C(=O)N[C@@H](CCC(=O)O)C(=O)N[C@@H](CCCCN)C(=O)N[C@@H](CCC(N)=O)C(=O)N[C@@H](CCCNC(=N)N)C(=O)N[C@@H](CCC(N)=O)C(=O)N[C@@](C)(CC)C(=O)N[C@@H](CCC(=O)O)C(=O)N[C@@H](Cc1ccccc1)C(=O)N[C@H](C(=O)N[C@@H](CCCNC(=N)N)C(=O)N[C@@H](Cc1c[nH]cn1)C(=O)N[C@@H](CC(C)C)C(=O)N[C@@H](CC(C)C)C(=O)N[C@@H](CC(N)=O)C(=O)N[C@@H](CCCCN)C(=O)NC(C)(C)C(=O)N[C@H](C(=O)N[C@@H](CCCNC(=N)N)C(=O)N[C@@H](CCC(N)=O)C(=O)N[C@@H](CCCNC(=N)N)C(=O)N[C@@H](Cc1ccc(O)cc1)C(N)=O)[C@@H](C)O)C(C)C)[C@@H](C)CC [Example 37] (H-[NMeY][Aib]EGT[αMeF]TSDK([Gly-Gly-Gly-Gly-Palmitoyl])AI[Aib]LEKQRQ[Iva]EFVRHLLNK[Aib]TRQRY-NH2)
- Rate of feeding suppression (%): −54.9%
